The values below come from BindingDB's records for doi:10.1002/cmdc.201100077 (Zydus Research Centre, 2011).

Experiment [1] addresses T1, Tyrosine-protein phosphatase non-receptor type 1 (Homo sapiens, UniProt P18031).
T1 sequence (P18031 whole entry): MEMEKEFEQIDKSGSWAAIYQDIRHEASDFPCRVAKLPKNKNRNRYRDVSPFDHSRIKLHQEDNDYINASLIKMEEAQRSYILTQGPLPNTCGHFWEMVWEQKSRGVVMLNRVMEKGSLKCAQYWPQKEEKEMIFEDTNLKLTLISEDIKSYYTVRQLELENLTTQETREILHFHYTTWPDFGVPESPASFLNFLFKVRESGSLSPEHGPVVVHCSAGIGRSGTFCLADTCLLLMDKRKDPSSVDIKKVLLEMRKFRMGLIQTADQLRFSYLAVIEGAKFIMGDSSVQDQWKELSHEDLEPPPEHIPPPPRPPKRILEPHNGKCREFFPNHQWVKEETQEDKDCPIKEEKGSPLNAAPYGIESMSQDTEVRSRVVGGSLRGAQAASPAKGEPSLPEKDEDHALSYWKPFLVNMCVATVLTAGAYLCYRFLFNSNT
The experiment in a line: Enzyme Assays. The method, then:
(§1) The in vitro enzyme inhibitory activity was evaluated by using the pNPP assay. Para-nitrophenylphosphate (pNPP) and test compounds were added to assay buffer, and reactions were initiated by the addition of PTP1B or TCPTP (10-100 nM).

In experiment [2] the target is T2, Tyrosine-protein phosphatase non-receptor type 2 (Homo sapiens, UniProt P17706).
T2 sequence (P17706 whole entry): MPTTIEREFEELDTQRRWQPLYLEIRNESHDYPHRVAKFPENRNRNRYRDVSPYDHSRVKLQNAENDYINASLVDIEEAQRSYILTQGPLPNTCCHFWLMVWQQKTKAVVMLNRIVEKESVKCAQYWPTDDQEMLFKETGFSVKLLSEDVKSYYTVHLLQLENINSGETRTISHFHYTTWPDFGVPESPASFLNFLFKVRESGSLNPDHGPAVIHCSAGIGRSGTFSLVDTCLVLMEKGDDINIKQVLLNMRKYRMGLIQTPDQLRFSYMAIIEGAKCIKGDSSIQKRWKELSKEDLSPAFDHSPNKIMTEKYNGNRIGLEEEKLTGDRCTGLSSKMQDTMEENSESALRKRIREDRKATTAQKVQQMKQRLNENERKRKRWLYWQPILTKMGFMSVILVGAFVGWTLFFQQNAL
The experiment can be described thus: Enzyme Assays. On the procedure: as §1

Usually IC50 stands for the concentration that inhibits the measured activity by half. High values mean weaker potency, low ones greater potency.

SMILES strings stand for the structures.

In experiment [1], `Cc1cc(CC(Cc2ccc3cc(Br)c(C(F)(F)P(=O)(O)O)cc3c2)(C(=O)c2ccccc2)n2nnc3ccccc32)ccc1C1CC(=O)NS1(=O)=O` (stereo not drawn) [({7-[2-(1H-1,2,3-benzotriazol-1-yl)-2-{[3-methyl-4-(1,1,3-trioxo-1λ⁶,2-thiazolidin-5-yl)phenyl]methyl}-3-oxo-3-phenylpropyl]-3-bromonaphthalen-2-yl}difluoromethyl)phosphonic acid (10f)] had an IC50 of 924 nM. As for `O=C(c1ccccc1)C(Cc1ccc(C(F)(F)P(=O)(O)O)c(Br)c1)(Cc1ccc2cc(Br)c(C(F)(F)P(=O)(O)O)cc2n1)n1nnc2ccccc21` (stereo not drawn) [({2-[2-(1H-1,2,3-benzotriazol-1-yl)-2-({3-bromo-4-[difluoro(phosphono)methyl]phenyl}methyl)-3-oxo-3-phenylpropyl]-6-bromoquinolin-7-yl}difluoromethyl)phosphonic acid (10l)], the IC50 in experiment [1] turned out to be 21 nM. Take `O=C(c1ccccc1)C(Cc1ccc2cc(Br)c(C(F)(F)P(=O)(O)O)cc2n1)(Cc1ccc2cc(Br)c(C(F)(F)P(=O)(O)O)cc2n1)n1nnc2ccccc21` [({2-[2-(1H-1,2,3-benzotriazol-1-yl)-2-({6-bromo-7-[difluoro(phosphono)methyl]quinolin-2-yl}methyl)-3-oxo-3-phenylpropyl]-6-bromoquinolin-7-yl}difluoromethyl)phosphonic acid (10n)]: the IC50 in experiment [1] was found to be 5 nM; in experiment [2], 101 nM. For `N[S+]([O-])C(F)(F)c1ccc(CC(Cc2ccc3cc(Br)c(C(F)(F)P(=O)(O)O)cc3c2)(C(=O)c2ccccc2)n2nnc3ccccc32)cc1Br` (stereo not drawn) [({7-[2-({4-[(aminosulfinyl)difluoromethyl]-3-bromophenyl}methyl)-2-(1H-1,2,3-benzotriazol-1-yl)-3-oxo-3-phenylpropyl]-3-bromonaphthalen-2-yl}difluoromethyl)phosphonic acid (10d)], the IC50 in experiment [1] stood at 19 nM; in experiment [2] it was 192 nM. With `O=C(c1ccccc1)C(Cc1ccc(C(F)(F)P(=O)(O)O)c(Br)c1)(Cc1ccc2cc(Br)c(C(F)(F)P(=O)(O)O)cc2c1)n1nnc2ccccc21` (stereo not drawn) [({7-[2-(1H-1,2,3-benzotriazol-1-yl)-2-({3-bromo-4-[difluoro(phosphono)methyl]phenyl}methyl)-3-oxo-3-phenylpropyl]-3-bromonaphthalen-2-yl}difluoromethyl)phosphonic acid (10b)], the IC50 in experiment [1] turned out to be 20 nM; in experiment [2], 201 nM. For `O=C(c1ccccc1)C(Cc1ccc2cc(Br)c(C(F)(F)P(=O)(O)O)cc2c1)(Cc1ccc2cc(Br)c(C(F)(F)P(=O)(O)O)cc2c1)n1nnc2ccccc21`, the IC50 in experiment [1] came to 5 nM; in experiment [2] it was 580 nM. With `N[S+]([O-])C(F)(F)c1cc2nc(CC(Cc3ccc4cc(Br)c(C(F)(F)P(=O)(O)O)cc4c3)(C(=O)c3ccccc3)n3nnc4ccccc43)ccc2cc1Br` (stereo not drawn) [({7-[2-({7-[(aminosulfinyl)difluoromethyl]-6-bromoquinolin-2-yl}methyl)-2-(1H-1,2,3-benzotriazol-1-yl)-3-oxo-3-phenylpropyl]-3-bromonaphthalen-2-yl}difluoromethyl)phosphonic acid (10k)], the IC50 worked out at 6 nM in experiment [1] and 185 nM in experiment [2]. Consider `N[S+]([O-])C(F)(F)c1cc2nc(CC(Cc3ccc4cc(Br)c(C(F)(F)P(=O)(O)O)cc4n3)(C(=O)c3ccccc3)n3nnc4ccccc43)ccc2cc1Br` (stereo not drawn) [({2-[2-({7-[(aminosulfinyl)difluoromethyl]-6-bromoquinolin-2-yl}methyl)-2-(1H-1,2,3-benzotriazol-1-yl)-3-oxo-3-phenylpropyl]-6-bromoquinolin-7-yl}difluoromethyl)phosphonic acid (10o)], for which the IC50 in experiment [1] amounted to 4 nM; in experiment [2], 82 nM. The molecule `O=C1CC(c2ccc(CC(Cc3ccc4cc(Br)c(C(F)(F)P(=O)(O)O)cc4c3)(C(=O)c3ccccc3)n3nnc4ccccc43)cc2)S(=O)(=O)N1` (stereo not drawn) [({7-[2-(1H-1,2,3-benzotriazol-1-yl)-3-oxo-3-phenyl-2-{[4-(1,1,3-trioxo-1λ⁶,2-thiazolidin-5-yl)phenyl]methyl}propyl]-3-bromonaphthalen-2-yl}difluoromethyl)phosphonic acid (10e)] gave an IC50 in experiment [1] of 930 nM. In the case of `N[S+]([O-])C(F)(F)c1ccc(CC(Cc2ccc3cc(Br)c(C(F)(F)P(=O)(O)O)cc3n2)(C(=O)c2ccccc2)n2nnc3ccccc32)cc1Br` (stereo not drawn) [({2-[2-({4-[(aminosulfinyl)difluoromethyl]-3-bromophenyl}methyl)-2-(1H-1,2,3-benzotriazol-1-yl)-3-oxo-3-phenylpropyl]-6-bromoquinolin-7-yl}difluoromethyl)phosphonic acid (10m)], in experiment [1], the midpoint of inhibition, the IC50, lay at 22 nM. On to `O=C(c1ccccc1)C(Cc1ccc(Br)c(C(F)(F)P(=O)(O)O)c1)(Cc1ccc2cc(Br)c(C(F)(F)P(=O)(O)O)cc2c1)n1nnc2ccccc21` (stereo not drawn) [({7-[2-(1H-1,2,3-benzotriazol-1-yl)-2-({4-bromo-3-[difluoro(phosphono)methyl]phenyl}methyl)-3-oxo-3-phenylpropyl]-3-bromonaphthalen-2-yl}difluoromethyl)phosphonic acid (10c)], for which the IC50 in experiment [1] was determined as 404 nM. As to `O=C(c1ccccc1)C(Cc1ccc2cc(Br)c(C(F)(F)P(=O)(O)O)cc2c1)(Cc1ccc2cc(Br)c(C(F)(F)P(=O)(O)O)cc2n1)n1nnc2ccccc21` (stereo not drawn) [({7-[2-(1H-1,2,3-benzotriazol-1-yl)-2-({6-bromo-7-[difluoro(phosphono)methyl]quinolin-2-yl}methyl)-3-oxo-3-phenylpropyl]-3-bromonaphthalen-2-yl}difluoromethyl)phosphonic acid (10i)], the IC50 in experiment [1] was 3 nM; in experiment [2], 90 nM. Regarding `O=C1CC(c2ccc(CC(Cc3ccc4cc(Br)c(C(F)(F)P(=O)(O)O)cc4c3)(C(=O)c3ccccc3)n3nnc4ccccc43)cc2F)S(=O)(=O)N1` (stereo not drawn) [({7-[2-(1H-1,2,3-benzotriazol-1-yl)-2-{[3-fluoro-4-(1,1,3-trioxo-1λ⁶,2-thiazolidin-5-yl)phenyl]methyl}-3-oxo-3-phenylpropyl]-3-bromonaphthalen-2-yl}difluoromethyl)phosphonic acid (10g)], the IC50 in experiment [1] was 919 nM. In turn, `O=C(c1ccccc1)C(Cc1ccc(C(F)(F)P(=O)(O)O)cc1)(Cc1ccc2cc(Br)c(C(F)(F)P(=O)(O)O)cc2c1)n1nnc2ccccc21` (stereo not drawn) [({7-[2-(1H-1,2,3-benzotriazol-1-yl)-2-({4-[difluoro(phosphono)methyl]phenyl}methyl)-3-oxo-3-phenylpropyl]-3-bromonaphthalen-2-yl}difluoromethyl)phosphonic acid (10a)] showed an IC50 in experiment [1] of 46 nM. This IC50 is about 20-fold lower than that of the molecule before. Take `N[S+]([O-])C(F)(F)c1cc2cc(CC(Cc3ccc4cc(Br)c(C(F)(F)P(=O)(O)O)cc4c3)(C(=O)c3ccccc3)n3nnc4ccccc43)ccc2cc1Br` (stereo not drawn) [({7-[2-({7-[(aminosulfinyl)difluoromethyl]-6-bromonaphthalen-2-yl}methyl)-2-(1H-1,2,3-benzotriazol-1-yl)-3-oxo-3-phenylpropyl]-3-bromonaphthalen-2-yl}difluoromethyl)phosphonic acid (10j)]: the results for the IC50 in experiment [1] and in experiment [2] were 4 nM and 480 nM, respectively.
